Where two headings read alike, the source gives them in different places. *1 amine or outer side, *2 acyl side, *3 side chain or, on linkers, in order; H or OH if unused. Where a SMILES comes first, the peptide text is derived from it. Side-chain parts run from the residue outwards. [ ]: non-standard residue; d: D form. The star is where a group is joined. αMePhe(2-F) = C[C@](N)(Cc1ccccc1F)C(=O)O; γGlu = O=C(O)[C@H](CCC(=O)[*:2])N[*:1]; C14 diacid = O=C(O)CCCCCCCCCCCCC(=O)*; αMeY = C[C@](N)(Cc1ccc(O)cc1)C(=O)O; 4Pal = N[C@@H](Cc1ccncc1)C(=O)O; αMeL = CC(C)C[C@](C)(N)C(=O)O; Orn = NCCC[C@H](N)C(=O)O; AEEA = NCCOCCOCC(=O)O; Aib = CC(C)(N)C(=O)O
Key:
Format in all cases: cell-based
hGIPR = target: T1, hGIPR (Homo sapiens, UniProt P48546); test: Functional cAMP formation (HTRF) in HEK-293 clonal cells expressing hGIPR, 0.1% bovine casein, without or with 1.0% human serum albumin; conditions: for Emax: 37° C., read-out: hGIPR Emax, % ± SEM; for EC50: cAMP, incubated at 37° C., 0.1% bovine casein (no human serum albumin), geometric mean, read-out: hGIPR EC50, nM (SEM, n)
T1 construct: expressed in transfected cells
T1 sequence (P48546 22-466): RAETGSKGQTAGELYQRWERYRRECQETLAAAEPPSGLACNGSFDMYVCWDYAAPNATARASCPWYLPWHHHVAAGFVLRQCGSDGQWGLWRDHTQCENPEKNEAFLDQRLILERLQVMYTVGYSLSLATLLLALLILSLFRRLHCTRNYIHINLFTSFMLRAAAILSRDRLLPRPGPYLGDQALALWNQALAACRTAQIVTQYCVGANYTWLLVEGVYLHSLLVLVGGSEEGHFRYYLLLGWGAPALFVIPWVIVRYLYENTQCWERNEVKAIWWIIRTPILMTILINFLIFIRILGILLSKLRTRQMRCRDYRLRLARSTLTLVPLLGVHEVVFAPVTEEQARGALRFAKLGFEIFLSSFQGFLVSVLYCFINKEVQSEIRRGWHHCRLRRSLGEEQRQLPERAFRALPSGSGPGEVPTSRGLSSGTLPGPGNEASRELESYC
How it was run: (§1)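 Cells were stimulated with peptide for 30 min at 37° C, then intracellular cAMP was measured by competitive HTRF (665/620 nm ratio) and converted to nM using a cAMP standard curve. Relative EC50 and Emax came from four-parameter logistic fits of percent maximal response against peptide concentration.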

hGLP-1R = hGLP-1R (Homo sapiens, UniProt P43220); test: Functional cAMP formation (HTRF) in HEK-293 clonal cells expressing hGLP-1R, 0.1% bovine casein, without or with 1.0% human serum albumin; design: expressed in transfected cells; conditions: for Emax: read-out: hGLP-1R Emax, % ± SEM; for EC50: geometric mean, read-out: hGLP-1R EC50, nM (SEM, n)
How it was run: as §1

hGCGR = target: T2, hGCGR (Homo sapiens, UniProt P47871); test: Functional cAMP formation (HTRF) in HEK-293 clonal cells expressing hGCGR, 0.1% bovine casein, without or with 1.0% human serum albumin; conditions: geometric mean, read-out: hGCGR EC50, nM (SEM, n)
T2 construct: expressed in transfected cells
How it was run: as §1

[1] = HEK293, 0.1% bovine casein and 1.0% human serum albumin, percent of maximal response to GIP(1-42)NH2
[2] = HEK293, 0.1% bovine casein and 1.0% human serum albumin, 37° C., percent of maximal response to GLP-1(7-36)NH2
[3] = HEK293, percent of maximal response to GLP-1(7-36)NH2, 37° C., 0.1% bovine casein, arithmetic mean
[4] = cAMP, incubated at 37° C., 0.1% bovine casein (no human serum albumin)
[5] = 0.1% bovine casein and 1.0% human serum albumin, 37° C.
[6] = HEK293, percent of maximal response to GIP(1-42)NH2, 0.1% bovine casein, arithmetic mean

Sequence of hGLP-1R (P43220 24-463): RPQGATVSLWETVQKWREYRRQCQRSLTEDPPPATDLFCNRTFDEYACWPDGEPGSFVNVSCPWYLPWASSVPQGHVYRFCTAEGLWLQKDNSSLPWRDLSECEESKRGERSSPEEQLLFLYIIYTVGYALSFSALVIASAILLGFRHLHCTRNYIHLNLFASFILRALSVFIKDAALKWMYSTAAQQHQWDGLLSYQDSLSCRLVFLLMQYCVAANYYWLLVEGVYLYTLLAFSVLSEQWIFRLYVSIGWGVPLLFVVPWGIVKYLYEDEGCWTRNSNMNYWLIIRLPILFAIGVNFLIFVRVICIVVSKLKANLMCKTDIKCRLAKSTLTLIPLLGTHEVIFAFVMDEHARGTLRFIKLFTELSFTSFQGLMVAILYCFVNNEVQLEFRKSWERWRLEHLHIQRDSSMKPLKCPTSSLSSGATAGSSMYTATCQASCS
T2 sequence (P47871 26-477): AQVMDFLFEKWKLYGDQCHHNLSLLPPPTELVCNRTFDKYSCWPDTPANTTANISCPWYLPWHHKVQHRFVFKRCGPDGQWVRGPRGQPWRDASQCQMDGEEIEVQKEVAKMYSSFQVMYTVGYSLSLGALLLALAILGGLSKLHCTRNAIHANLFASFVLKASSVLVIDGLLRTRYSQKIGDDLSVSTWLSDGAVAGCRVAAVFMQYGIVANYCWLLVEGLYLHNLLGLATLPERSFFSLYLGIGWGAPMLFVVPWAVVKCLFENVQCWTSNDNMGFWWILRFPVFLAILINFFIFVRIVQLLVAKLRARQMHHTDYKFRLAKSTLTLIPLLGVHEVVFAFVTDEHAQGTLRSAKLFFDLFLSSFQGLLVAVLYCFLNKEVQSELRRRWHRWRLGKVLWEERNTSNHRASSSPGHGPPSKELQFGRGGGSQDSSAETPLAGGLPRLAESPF

SMILES	Emax (hGIPR; [1])	Emax (hGLP-1R; [2])	Emax (hGLP-1R; [3])	EC50 (hGLP-1R; [4])	EC50 (hGCGR; [5])	EC50 (hGCGR; [4])	Emax (hGIPR; [6])	EC50 (hGIPR)	EC50 (hGLP-1R; [5])
CC[C@H](C)[C@H](NC(=O)CNC(=O)[C@H](Cc1ccncc1)NC(=O)[C@H](CC(=O)O)NC(=O)[C@H](CO)NC(=O)[C@@H](NC(=O)[C@](C)(Cc1ccccc1F)NC(=O)[C@@H](NC(=O)CNC(=O)[C@H](CCC(=O)O)NC(=O)C(C)(C)NC(=O)[C@@H](N)Cc1ccc(O)cc1)[C@@H](C)O)[C@@H](C)O)C(=O)N[C@@](C)(CC(C)C)C(=O)N[C@@H](CC(C)C)C(=O)N[C@@H](CC(=O)O)C(=O)N[C@@H](CCCN)C(=O)N[C@@H](CCCCNC(=O)COCCOCCNC(=O)COCCOCCNC(=O)CC[C@H](NC(=O)CCCCCCCCCCCCC(=O)O)C(=O)O)C(=O)N[C@@H](C)C(=O)N[C@@H](CCC(N)=O)C(=O)NC(C)(C)C(=O)N[C@@H](CCC(=O)O)C(=O)N[C@@H](Cc1ccccc1)C(=O)N[C@H](C(=O)N[C@H](CCC(=O)O)C(=O)N[C@@](C)(Cc1ccc(O)cc1)C(=O)N[C@@H](CC(C)C)C(=O)N[C@H](C(=O)N[C@@H](CCC(=O)O)C(=O)NCC(=O)NCC(=O)N[C@@H](CCCCNC(=O)COCCOCCNC(=O)COCCOCCNC(=O)CC[C@H](NC(=O)CCCCCCCCCCCCC(=O)O)C(=O)O)C(=O)N[C@@H](CO)C(=O)N[C@@H](CO)C(=O)NCC(=O)N[C@@H](C)C(=O)N1CCC[C@H]1C(=O)N1CCC[C@H]1C(=O)N1CCC[C@H]1C(=O)N[C@@H](CO)C(N)=O)[C@@H](C)CC)[C@@H](C)CC [Example 100] (H-Y[Aib]EGT[αMePhe(2-F)]TSD[4Pal]GI[αMeL]LD[Orn]K([AEEA-AEEA-γGlu-C14 diacid])AQ[Aib]EFI[dE][αMeY]LIEGGK([AEEA-AEEA-γGlu-C14 diacid])SSGAPPPS-NH2; N-terminus assumed)	98.3%	123%	111%	11.4 nM	> 9950 nM	> 9950 nM	–	–	–
CC[C@H](C)[C@H](NC(=O)[C@H](CC(C)C)NC(=O)[C@](C)(Cc1ccc(O)cc1)NC(=O)[C@@H](CCC(=O)O)NC(=O)[C@@H](NC(=O)[C@H](Cc1ccccc1)NC(=O)[C@H](CCC(=O)O)NC(=O)C(C)(C)NC(=O)[C@H](CCC(N)=O)NC(=O)CNC(=O)[C@H](CCCCNC(=O)COCCOCCNC(=O)COCCOCCNC(=O)CC[C@H](NC(=O)CCCCCCCCCCCCC(=O)O)C(=O)O)NC(=O)[C@H](CCCN)NC(=O)[C@H](CC(=O)O)NC(=O)[C@H](CC(C)C)NC(=O)[C@](C)(CC(C)C)NC(=O)[C@@H](NC(=O)[C@H](CO)NC(=O)[C@H](Cc1ccncc1)NC(=O)[C@H](CC(=O)O)NC(=O)[C@H](CO)NC(=O)[C@@H](NC(=O)[C@](C)(Cc1ccccc1F)NC(=O)[C@@H](NC(=O)CNC(=O)[C@H](CCC(=O)O)NC(=O)C(C)(C)NC(=O)[C@@H](N)Cc1ccc(O)cc1)[C@@H](C)O)[C@@H](C)O)[C@@H](C)CC)[C@@H](C)CC)C(=O)N[C@@H](CCC(=O)O)C(=O)NCC(=O)NCC(=O)N[C@@H](CCCCNC(=O)COCCOCCNC(=O)COCCOCCNC(=O)CC[C@H](NC(=O)CCCCCCCCCCCCC(=O)O)C(=O)O)C(=O)N[C@@H](CO)C(=O)N[C@@H](CO)C(=O)NCC(=O)N[C@@H](C)C(=O)N1CCC[C@H]1C(=O)N1CCC[C@H]1C(=O)N1CCC[C@H]1C(=O)N[C@@H](CO)C(N)=O [Example 102]	96.9%	–	–	19.1 nM	> 9950 nM	> 9950 nM	–	–	–
CC[C@H](C)[C@H](NC(=O)[C@H](CC(C)C)NC(=O)[C@](C)(Cc1ccc(O)cc1)NC(=O)[C@@H](CCC(=O)O)NC(=O)[C@@H](NC(=O)[C@H](Cc1ccccc1)NC(=O)CNC(=O)C(C)(C)NC(=O)[C@H](CCC(N)=O)NC(=O)[C@H](C)NC(=O)[C@H](CCCCNC(=O)COCCOCCNC(=O)COCCOCCNC(=O)CC[C@H](NC(=O)CCCCCCCCCCCCC(=O)O)C(=O)O)NC(=O)[C@H](CCCN)NC(=O)[C@H](CC(=O)O)NC(=O)[C@H](CC(C)C)NC(=O)[C@](C)(CC(C)C)NC(=O)[C@@H](NC(=O)[C@H](CO)NC(=O)[C@H](Cc1ccncc1)NC(=O)[C@H](CC(=O)O)NC(=O)[C@H](CO)NC(=O)[C@@H](NC(=O)[C@](C)(Cc1ccccc1F)NC(=O)[C@@H](NC(=O)CNC(=O)[C@H](CCC(=O)O)NC(=O)C(C)(C)NC(=O)[C@@H](N)Cc1ccc(O)cc1)[C@@H](C)O)[C@@H](C)O)[C@@H](C)CC)[C@@H](C)CC)C(=O)N[C@@H](CCC(=O)O)C(=O)NCC(=O)NCC(=O)N[C@@H](CCCCNC(=O)COCCOCCNC(=O)COCCOCCNC(=O)CC[C@H](NC(=O)CCCCCCCCCCCCC(=O)O)C(=O)O)C(=O)N[C@@H](CO)C(=O)N[C@@H](CO)C(=O)NCC(=O)N[C@@H](C)C(=O)N1CCC[C@H]1C(=O)N1CCC[C@H]1C(=O)N1CCC[C@H]1C(=O)N[C@@H](CO)C(N)=O [Example 103]	94.2%	96.9%	–	2.1 nM	> 9950 nM	> 9950 nM	92.8%	0.0305 nM	–
CC[C@H](C)[C@H](NC(=O)[C@H](Cc1ccccc1)NC(=O)[C@H](CCC(=O)O)NC(=O)C(C)(C)NC(=O)[C@H](CCC(N)=O)NC(=O)[C@H](C)NC(=O)[C@H](CCCCNC(=O)COCCOCCNC(=O)COCCOCCNC(=O)CC[C@H](NC(=O)CCCCCCCCCCCCC(=O)O)C(=O)O)NC(=O)[C@H](CCCN)NC(=O)[C@H](CC(=O)O)NC(=O)[C@H](CC(C)C)NC(=O)[C@](C)(CC(C)C)NC(=O)[C@@H](NC(=O)[C@H](CO)NC(=O)[C@H](Cc1ccncc1)NC(=O)[C@H](CC(=O)O)NC(=O)[C@H](CO)NC(=O)[C@@H](NC(=O)[C@](C)(Cc1ccccc1F)NC(=O)[C@@H](NC(=O)CNC(=O)[C@H](CCC(=O)O)NC(=O)C(C)(C)NC(=O)[C@@H](N)Cc1ccc(O)cc1)[C@@H](C)O)[C@@H](C)O)[C@@H](C)CC)C(=O)NCC(=O)N[C@@](C)(Cc1ccc(O)cc1)C(=O)N[C@@H](CC(C)C)C(=O)N[C@H](C(=O)N[C@@H](CCC(=O)O)C(=O)NCC(=O)NCC(=O)N[C@@H](CCCCNC(=O)COCCOCCNC(=O)COCCOCCNC(=O)CC[C@H](NC(=O)CCCCCCCCCCCCC(=O)O)C(=O)O)C(=O)N[C@@H](CO)C(=O)N[C@@H](CO)C(=O)NCC(=O)N[C@@H](C)C(=O)N1CCC[C@H]1C(=O)N1CCC[C@H]1C(=O)N1CCC[C@H]1C(=O)N[C@@H](CO)C(N)=O)[C@@H](C)CC [Example 104]	95.9%	95.8%	–	–	> 9950 nM	> 9950 nM	94.9%	0.0361 nM	12.3 nM
CC[C@H](C)[C@H](NC(=O)[C@H](CCCN)NC(=O)[C@H](CC(=O)O)NC(=O)[C@H](CC(C)C)NC(=O)[C@](C)(CC(C)C)NC(=O)[C@@H](NC(=O)[C@H](CO)NC(=O)[C@H](CCCCNC(=O)COCCOCCNC(=O)COCCOCCNC(=O)CC[C@H](NC(=O)CCCCCCCCCCCCC(=O)O)C(=O)O)NC(=O)[C@H](CC(=O)O)NC(=O)[C@H](CO)NC(=O)[C@@H](NC(=O)[C@](C)(Cc1ccccc1F)NC(=O)[C@@H](NC(=O)CNC(=O)[C@H](CCC(=O)O)NC(=O)C(C)(C)NC(=O)[C@@H](N)Cc1ccc(O)cc1)[C@@H](C)O)[C@@H](C)O)[C@@H](C)CC)C(=O)N[C@@H](C)C(=O)N[C@@H](CCC(N)=O)C(=O)NC(C)(C)C(=O)N[C@@H](CCC(=O)O)C(=O)N[C@@H](Cc1ccccc1)C(=O)N[C@H](C(=O)N[C@H](CCC(=O)O)C(=O)N[C@@](C)(Cc1ccc(O)cc1)C(=O)N[C@@H](CC(C)C)C(=O)N[C@H](C(=O)N[C@@H](CCCCNC(=O)COCCOCCNC(=O)COCCOCCNC(=O)CC[C@H](NC(=O)CCCCCCCCCCCCC(=O)O)C(=O)O)C(=O)NCC(=O)NCC(=O)N1CCC[C@H]1C(=O)N[C@@H](CO)C(=O)N[C@@H](CO)C(=O)NCC(=O)N[C@@H](C)C(=O)N1CCC[C@H]1C(=O)N1CCC[C@H]1C(=O)N1CCC[C@H]1C(=O)N[C@@H](CO)C(N)=O)[C@@H](C)CC)[C@@H](C)CC [Example 107] (H-Y[Aib]EGT[αMePhe(2-F)]TSDK([AEEA-AEEA-γGlu-C14 diacid])SI[αMeL]LD[Orn]IAQ[Aib]EFI[dE][αMeY]LIK([AEEA-AEEA-γGlu-C14 diacid])GGPSSGAPPPS-NH2)	–	–	93.4%	–	–	> 9950 nM	94.3%	0.0473 nM	–
